Laboratory results reported in paper PMC10011156, “Characterization of a highly conserved MUC5B-degrading protease, MdpL, from Limosilactobacillus fermentum” (Frontiers in Microbiology, 2023).

Target: T1, MdpL (Mucin degrading protease from Limosilactobacillus); putative O-sialoglycoprotein endopeptidase (OSGP) (Limosilactobacillus fermentum, UniProt B2GAG0)
T1 construct: gene tsaD; C-terminal Gly-Ser-Gly linker and 6xHis tag kept
T1 sequence (B2GAG0 1-344): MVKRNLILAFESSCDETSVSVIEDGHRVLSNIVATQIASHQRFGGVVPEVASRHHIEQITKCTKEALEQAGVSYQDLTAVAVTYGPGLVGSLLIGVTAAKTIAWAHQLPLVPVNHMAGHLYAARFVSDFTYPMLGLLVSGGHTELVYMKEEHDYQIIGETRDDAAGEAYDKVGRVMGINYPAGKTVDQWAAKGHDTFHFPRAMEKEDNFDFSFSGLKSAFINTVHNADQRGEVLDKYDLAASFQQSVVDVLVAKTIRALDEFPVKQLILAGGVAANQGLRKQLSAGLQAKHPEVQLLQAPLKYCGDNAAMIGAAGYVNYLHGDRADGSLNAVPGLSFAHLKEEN
Test: Etanercept hydrolysis, SDS-PAGE with densitometry
Assay type: biochemical
Details: inhibitor concentration per manufacturer, not given

| SMILES | inhibition level (%) |
| --- | --- |
| NCCc1ccc(S(=O)(=O)F)cc1 [AEBSF] | AEBSF, ALLN, Antipain, Chymostatin, E64, Leupeptin, and Phosphoramidon completely inhibited the MdpL activity |
| CC(C)C[C@H](NC(=O)[C@@H]1O[C@H]1C(=O)O)C(=O)NCCCCNC(=N)N [E64] | AEBSF, ALLN, Antipain, Chymostatin, E64, Leupeptin, and Phosphoramidon completely inhibited the MdpL activity |
| CC(C)C[C@H](NC(=O)[C@@H](O)[C@H](N)Cc1ccccc1)C(=O)O [Bestatin] | Bestatin, and PMSF had a moderate inhibitory effect |
| CC(C)C[C@H](NP(=O)(O)O[C@@H]1O[C@@H](C)[C@H](O)[C@@H](O)[C@H]1O)C(=O)N[C@@H](Cc1c[nH]c2ccccc12)C(=O)O [Phosphoramidon] | AEBSF, ALLN, Antipain, Chymostatin, E64, Leupeptin, and Phosphoramidon completely inhibited the MdpL activity |
